Key:
Staphylococcus aureus [1] = assay: Soaked filter paper on agar plates with S. aureus, inhibition zone; type: cell-based; conditions: 24 hours at 37° C., compared with EtAc control
Method: The experiment was repeated with filter paper which was soaked with pure totarol, with microparticles loaded with totarol and with EtAc, and which was incubated on agar plates, onto which S. aureus was cultivated.

Staphylococcus aureus [2] = assay: Growth of S. aureus in suspension, optical density at 600 nm; type: cell-based; conditions: dissolved in ethyl acetate, 6 hours of incubation
Method: The antibacterial effect on Staphylococcus aureus (S. aureus) of totarol and the microparticles loaded with totarol was tested in vitro in a further experiment. It was shown that a concentration of 0.1 mg/ml of totarol dissolved in ethyl acetate (EtAc) was sufficient to inhibit the growth of S. aureus in suspension after 6 hours of incubation.

Staphylococcus aureus [3] = assay: S. aureus seeded onto agar plates, inhibition zone; type: cell-based; conditions: 1 mg pure totarol or 10 mg microparticles loaded with about 1 mg totarol, 24 hours at 37° C.
Method: In further experiments the S. aureus bacteria were seeded onto agar plates and treated with 1 mg of pure totarol, 10 mg of unloaded microparticles, and 10 mg of microparticles loaded with about 1 mg of totarol.

human cells = conditions: cited from earlier work
Streptococcus gordonii = assay: Antibacterial effect against Streptococcus gordonii, growth by change of optical density; type: cell-based; conditions: 5 mg in 6 well plates, 0 h vs 24 h, starting density 1.8; P/S 4%
Method: The microparticles loaded with totarol were then tested for their antibacterial effect against Streptococcus gordonii (S.G.). For this purpose, 5 mg of totarol-loaded microparticles were given into 6 well plates and covered with a solution of S.G. For comparison, 5 mg of unloaded microparticles, 5 mg of free totarol, pure medium (Schaedler Medium of the company BD), medium with S.G. and medium with S.G. and 4% P/S (penicillin streptomycin) as positive control were measured. By means of the change of the optical density the growth of S.G. was determined. The starting density of S.G. was 1.8. In FIG. 3 the measured results at zero hour (left columns) and after 24 hours (right columns) is shown.

bacteria = conditions: in vitro; cited from earlier work
[4] = system: multi-resistant Staphylococcus aureus (MRSA); conditions: cited from earlier work
fresh human whole blood = assay: Hemocompatibility in whole blood according to ISO 10993-4; type: cell-based; conditions: 1 hour
Method: Finally in vitro tests were performed where totarol and microparticles loaded with totarol were brought into contact with whole blood. The effect on erythrozytes, platelets, leucozytes as well as the complement and coagulation cascade was examined.
The measurements were made according ISO 10993-4, in determining various markers with a central importance within the hemostatic system.
Shown are the means values and standard deviations (n=3).
Shown are the mean values and standard deviations (n=3).

## CC(C)c1c(O)ccc2c1CC[C@H]1C(C)(C)CCC[C@]21C [totarol, (4bS,8aS)-4b,8,8-Trimethyl-1-propan-2-yl-5,6,7,8a,9,10-hexahydrophenanthren-2-ol]
Staphylococcus aureus [1]
  inhibition zone around the filter paper: clear inhibition zone
Staphylococcus aureus [2]
  concentration sufficient to inhibit the growth of S. aureus in suspension: 0.1 mg/mL
Staphylococcus aureus [3]
  inhibition zone on agar plates: clear inhibition zone
Human cells
  concentration at which toxic and inhibits the growth of human cells: more than 5 μg/ml
Streptococcus gordonii
  reduction of the bacterial concentration (growth of S.G. by optical density): stronger reduction of the bacterial concentration than totarol-loaded microparticles
bacteria
  minimum concentration where totarol still has an antibacterial effect: 2 µg/mL
[4]
  effectiveness against MRSA: effective
Fresh human whole blood; 0.1 mg/ml totarol, 1 mg/ml totarol MP, vs control and unloaded microparticles
  effects on the hemostatic system: neither totarol nor the microparticles loaded with totarol have negative effects
Fresh human whole blood; blood contact
  hemocompatibility: good hemocompatibility

— patent US20160157483A1, “COMPOSITION FOR THE CLEANING AND PROTECTION OF TECHNICAL SURFACES” (aimecs GmbH, priority 2013, published 2016)
